From ChEMBL document CHEMBL1130507, “Synthesis and evaluation of benzophenone-based photoaffinity labeling analogs of prenyl pyrophosphates containing stable amide linkages” (Bioorg Med Chem Lett, 1997)

Target: T1, Farnesyltransferase (Saccharomyces cerevisiae S288c, UniProt P22007+P29703)
T1 sequence (P29703 whole entry): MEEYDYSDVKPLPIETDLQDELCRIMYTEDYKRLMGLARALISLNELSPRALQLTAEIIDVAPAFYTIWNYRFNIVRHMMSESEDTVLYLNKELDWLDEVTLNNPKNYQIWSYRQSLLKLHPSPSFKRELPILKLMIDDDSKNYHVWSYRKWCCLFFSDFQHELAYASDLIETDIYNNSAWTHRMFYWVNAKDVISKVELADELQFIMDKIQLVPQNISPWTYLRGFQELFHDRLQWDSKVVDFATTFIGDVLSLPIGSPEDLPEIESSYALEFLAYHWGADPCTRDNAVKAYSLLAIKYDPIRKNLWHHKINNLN
T1 sequence (P22007 whole entry): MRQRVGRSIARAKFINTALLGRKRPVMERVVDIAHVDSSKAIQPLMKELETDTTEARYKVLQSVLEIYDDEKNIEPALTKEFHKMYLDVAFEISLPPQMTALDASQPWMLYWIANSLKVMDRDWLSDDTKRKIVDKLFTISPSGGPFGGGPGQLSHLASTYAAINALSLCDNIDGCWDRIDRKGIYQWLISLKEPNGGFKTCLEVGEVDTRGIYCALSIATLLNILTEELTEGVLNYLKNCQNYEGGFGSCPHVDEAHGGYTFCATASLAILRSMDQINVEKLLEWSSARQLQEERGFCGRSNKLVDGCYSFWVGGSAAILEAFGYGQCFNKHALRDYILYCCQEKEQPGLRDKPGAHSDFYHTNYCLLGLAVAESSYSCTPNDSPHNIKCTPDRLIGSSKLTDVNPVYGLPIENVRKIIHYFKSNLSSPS
Assay: Inhibition of yeast Farnesyl transferase
Type: protein-complex assay

SMILES	IC50	Ki	Kd
C/C(=C\COP(=O)(O)OP(=O)(O)O)CC/C=C(\C)CN1C(=O)c2ccccc2C1=O	10000 nM	–	–
C/C(=C\COP(=O)(O)OP(=O)(O)O)CNC(=O)c1cccc(C(=O)c2ccccc2)c1	37000 nM	6000 nM	–
CC(C)=CCC/C(C)=C/CC/C(C)=C/CO[P@@](=O)(O)OP(=O)(O)O [FARNESYL DIPHOSPHATE]	–	–	75 nM

Further lines, results first:

IC50	Ki	Kd	SMILES
2300 nM	380 nM	–	C/C(=C\COP(=O)(O)OP(=O)(O)O)CC/C=C(\C)COC(=O)c1cccc(C(=O)c2ccccc2)c1
2000 nM	960 nM	–	C/C(=C\COP(=O)(O)OP(=O)(O)O)COC(=O)c1cccc(C(=O)c2ccccc2)c1
3700 nM	700 nM	–	C/C(=C\COP(=O)(O)OP(=O)(O)O)CC/C=C(\C)CNC(=O)c1cccc(C(=O)c2ccccc2)c1
